Measured values published in paper PMC6271771, “4-Amino-substituted Benzenesulfonamides as Inhibitors of Human Carbonic Anhydrases” (Molecules, 2014).
Where “and” joins values, the source holds several entries; their conditions need not be identical. Equal values may be shown once. Read-outs that look alike come from different tables or passages of the source.

How the values were obtained:
CA XIII [1] = target: T1, CA XIII (Homo sapiens, UniProt Q8N1Q1); experiment: Fluorescent thermal shift assay (FTSA), CA XIII; type: binding
T1 construct: made in house

CA II [2] = target: T2, CA II (Homo sapiens, UniProt P00918); experiment: Isothermal titration calorimetry (ITC), CA II; type: binding; settings: for K (ITC titration of CA II) / ΔH (ITC titration of CA II): 37 °C, 50 mM phosphate buffer (pH 7.0), 100 mM NaCl, 2% DMSO, Figure 2
T2 construct: made in house
Method: (§1) The synthesized compounds could be arranged into two groups. The first group of compounds is the N-aryl-β-alanine derivatives containing the primary sulfonamide group 3–25 (except in the compound 4 which is a tertiary sulfonamide) and the second group of compounds—diazobenzenesulfonamides 26–33. Compounds such as benzenesulfonamide (BSA) and acetazolamide (AZM) were used as controls. The binding affinity of these compounds to six CA isoforms I, II, VI, VII, XII, and XIII was determined by the fluorescent thermal shift assay (FTSA) and confirmed for two key compounds 18 and 31 by the isothermal titration calorimetry (ITC).
(§2) Isothermal titration calorimetry (ITC) experiments were performed using VP-ITC instrument (Microcal, Inc., Northampton, MA, USA) with 5–10 µM protein solution in the cell and 50–100 µM of the ligand solution in the syringe. A typical experiment consisted of 25 injections (10 µL each) within 3 min intervals. Experiments were performed at 37 °C in a 50 mM sodium phosphate buffer containing 100 mM NaCl at pH 7.0, with a final DMSO concentration of 2%, equal in the syringe and the cell.

CA XIII [3] = target: T1, CA XIII; experiment: Isothermal titration calorimetry (ITC), CA XIII; type: binding
Method: as §1, §2

CA I [4] = target: T3, CA I (Homo sapiens, UniProt P00915); experiment: Isothermal titration calorimetry (ITC), CA I; type: binding
T3 construct: made in house
Method: as §1, §2

CA VII [5] = target: T4, CA VII (Homo sapiens, UniProt P43166); experiment: Fluorescent thermal shift assay (FTSA), CA VII; type: binding
T4 construct: made in house

CA I [6] = target: T3, CA I; experiment: Fluorescent thermal shift assay (FTSA), CA I; type: binding
CA VII [7] = target: T4, CA VII; experiment: Isothermal titration calorimetry (ITC), CA VII; type: binding
Method: as §1, §2

CA II [8] = target: T2, CA II; experiment: Fluorescent thermal shift assay (FTSA), CA II; type: binding; settings: pH 7.0, 37 °C
CA VI [9] = target: T5, CA VI (Homo sapiens, UniProt P23280); experiment: Fluorescent thermal shift assay (FTSA), CA VI; type: binding
T5 construct: made in house

CA XII [10] = target: T6, CA XII (Homo sapiens, UniProt O43570); experiment: Isothermal titration calorimetry (ITC), CA XII; type: binding; settings: pH 7.0, 37 °C, read-out: Kd for CA XII by isothermal titration calorimetry (values in the brackets)
T6 construct: made in house
Method: as §1, §2

CA XII [11] = target: T6, CA XII; experiment: Fluorescent thermal shift assay (FTSA), CA XII; type: binding
CA VI [12] = target: T5, CA VI; set-up: method as in PMID 24300919, PMID 17228881; settings: read-out: inhibition constant Ki for CA VI; previously reported; cited from earlier work
CA VI [13] = target: T5, CA VI; set-up: method as in Murakami and Sly 35; settings: read-out: Ki for CA VI; ref Murakami and Sly 35; cited from earlier work
[14] = FTSA, pH 7.0, 37 °C, read-out: Compound Dissociation Constants Kd for CA XIII
[15] = FTSA, pH 7.0, 37 °C, read-out: Compound Dissociation Constants Kd for CA VII
[16] = FTSA, pH 7.0, 37 °C, read-out: Compound Dissociation Constants Kd for CA I
[17] = read-out: Compound Dissociation Constants Kd for CA II
[18] = FTSA, pH 7.0, 37 °C, read-out: Compound Dissociation Constants Kd for CA VI
[19] = FTSA, pH 7.0, 37 °C, read-out: Compound Dissociation Constants Kd for CA XII

T3 sequence (P00915 whole entry): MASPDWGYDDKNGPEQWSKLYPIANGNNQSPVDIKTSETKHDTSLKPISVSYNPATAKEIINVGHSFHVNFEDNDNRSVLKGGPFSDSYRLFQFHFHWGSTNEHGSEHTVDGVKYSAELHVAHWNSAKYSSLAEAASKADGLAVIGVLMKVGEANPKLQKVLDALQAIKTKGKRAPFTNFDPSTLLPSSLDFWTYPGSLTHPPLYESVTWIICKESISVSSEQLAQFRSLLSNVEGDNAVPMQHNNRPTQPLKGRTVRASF
T1 sequence (Q8N1Q1 whole entry): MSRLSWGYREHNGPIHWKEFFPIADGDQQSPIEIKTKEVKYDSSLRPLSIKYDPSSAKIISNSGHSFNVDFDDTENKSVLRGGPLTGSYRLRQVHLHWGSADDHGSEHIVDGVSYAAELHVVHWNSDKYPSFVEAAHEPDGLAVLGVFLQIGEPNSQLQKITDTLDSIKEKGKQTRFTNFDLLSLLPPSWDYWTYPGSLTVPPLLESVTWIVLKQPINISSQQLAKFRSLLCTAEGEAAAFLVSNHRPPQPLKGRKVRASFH
T5 sequence (P23280 18-308): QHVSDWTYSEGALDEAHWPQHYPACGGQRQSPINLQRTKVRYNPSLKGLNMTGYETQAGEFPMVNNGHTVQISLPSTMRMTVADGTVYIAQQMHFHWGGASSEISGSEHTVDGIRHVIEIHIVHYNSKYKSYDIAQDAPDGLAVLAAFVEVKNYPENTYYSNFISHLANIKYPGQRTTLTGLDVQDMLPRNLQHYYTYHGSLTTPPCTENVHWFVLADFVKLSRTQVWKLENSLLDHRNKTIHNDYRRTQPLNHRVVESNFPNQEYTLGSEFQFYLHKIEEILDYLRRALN
T4 sequence (P43166 whole entry): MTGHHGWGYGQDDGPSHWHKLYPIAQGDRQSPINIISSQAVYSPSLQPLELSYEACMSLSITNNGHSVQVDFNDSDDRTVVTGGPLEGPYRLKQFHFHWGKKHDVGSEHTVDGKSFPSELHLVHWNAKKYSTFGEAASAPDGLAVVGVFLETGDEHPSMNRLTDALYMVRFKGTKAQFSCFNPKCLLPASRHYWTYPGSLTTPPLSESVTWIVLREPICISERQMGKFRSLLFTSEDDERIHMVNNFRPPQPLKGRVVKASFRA
T6 sequence (O43570 30-289 limits assumed): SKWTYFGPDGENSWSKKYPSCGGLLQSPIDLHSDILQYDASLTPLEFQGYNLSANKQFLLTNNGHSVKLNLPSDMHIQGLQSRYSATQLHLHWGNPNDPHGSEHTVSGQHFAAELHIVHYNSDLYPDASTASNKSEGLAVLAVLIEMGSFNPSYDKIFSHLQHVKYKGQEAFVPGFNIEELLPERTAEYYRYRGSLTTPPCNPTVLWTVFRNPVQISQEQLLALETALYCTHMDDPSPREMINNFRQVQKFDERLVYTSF

Compound | Kd (CA XIII [1]; [14]) [µM] | Kd (CA VII [5]; [15]) [µM] | Kd (CA I [6]; [16]) [µM] | Kd (CA II [8]; [17]) | Kd (CA VI [9]; [18]) [µM] | melting point [°C] | Kd (CA XII [11]; [19]) [µM] | other results
NS(=O)(=O)c1ccc(/N=N/N2CCCCCC2)cc1 [Compound 31] |  |  |  |  |  |  |  | Kd (CA XIII [1]): 0.0222 µM; Kd (CA II [2]): 0.04 µM; K (ITC titration of CA II) (CA II [2]): 2.5E7; ΔH (ITC titration of CA II) (CA II [2]): -9640; Kd (CA XIII [3]): 0.078 µM; Kd (CA I [4]): 0.022 µM; Kd (CA VII [5]): 0.125 µM; Kd (CA I [6]): 0.006 µM; Kd (CA VII [7]): 0.192 µM; Kd (CA II [8]; Compound Dissociation Constants Kd for CA II): 0.0435 µM; Kd (CA VI [9]): 14.3 µM; Kd (CA XII [10]): 0.22 µM; Kd (CA XII [11]): 0.67 µM
NS(=O)(=O)c1ccc(NCCC(=O)NN=Cc2ccc(Cl)cc2)cc1 [Compound 15, 4-[(2-{N'-[(4-Chlorophenyl)methylidene]hydrazinecarbonyl}ethyl]amino)benzene-1-sulfonamide] | 8.33 | 12.5 | 12.5 | 2 µM | 6.7 | 226 to 227 | 33.3 | 
Cc1cc(C)n(C(=O)CCNc2ccc(S(N)(=O)=O)cc2)n1 [Compound 18, 4-{[3-(3,5-Dimethyl-1H-pyrazol-1-yl)-3-oxopropyl]amino}benzene-1-sulfonamide] | 4 | 3.33 | 1.67 | 0.67 µM and 0.667 µM | 27 |  | 14.3 | K (ITC titration of CA II) (CA II [2]): 2.2E6; ΔH (ITC titration of CA II) (CA II [2]): -9320; Kd (CA II [2]; ITC, pH 7.0, 37 °C, read-out: Kd for CA II by isothermal titration calorimetry (values in the brackets)): 0.454 µM; Kd (CA XIII [3]; ITC, pH 7.0, 37 °C, read-out: Kd for CA XIII by isothermal titration calorimetry (values in the brackets)): 1 µM; Kd (CA I [4]; ITC, pH 7.0, 37 °C, read-out: Kd for CA I by isothermal titration calorimetry (values in the brackets)): 0.75 µM; Kd (CA VII [7]; ITC, pH 7.0, 37 °C, read-out: Kd for CA VII by isothermal titration calorimetry (values in the brackets)): 0.9 µM
NS(=O)(=O)c1ccc(NCCC(=O)NN=Cc2ccc([N+](=O)[O-])cc2)cc1 [Compound 17, 4-[(2-{N′-[(4-Nitrophenyl)methylidene]hydrazinecarbonyl]ethyl)amino]benzene-1-sulfonamide] | 50 | 25 | 20 | 3.6 µM | 25 | 227 to 228.5 | 67 | 
NS(=O)(=O)c1ccc(NCCC(=O)N/N=C/c2ccc(Br)cc2)cc1 [Compound 14, 4-[(2-{N'-[(4-Bromphenyl)methylidene]hydrazinecarbonyl}ethyl)amino]benzene-1-sulfonamide] | 7.14 | 5.88 | 12.5 | 1.82 µM | 7.1 | 218 to 219 | 31.3 | 
CC(C)=NNC(=O)CCNc1ccc(S(N)(=O)=O)cc1 [Compound 11, 4-{[2-(N'-Propan-2-ylidenehydrazinecarbonyl)ethyl]amino}benzene-1-sulfonamide] | 50 | 28.6 | 45.5 | 7.14 µM | 71.4 | 216 to 217 | 33.3 | 
NS(=O)(=O)c1ccc(NCCC(=O)NN=C(c2ccccc2)c2ccccc2)cc1 [Compound 13, 4-({2-[N'-(Diphenylmethylidene)hydrazinecarbonyl]ethyl}amino)benzene-1-sulfonamide] | 4.35 | 16.7 | 11.5 | 1.43 µM | 25 | 170 to 171 | 50 | 
Nc1ccc(S(N)(=O)=O)cc1 [Compound 1, 4-Aminobenzene-1-sulfonamide, reference compound] | 100 |  |  |  |  |  |  | Ki (CA VI [12]): 0.9 µM; Kd (CA VII [5]): 50 µM; difference between own Kd and Ki of Murakami and Sly, CA I (CA I [6]; Kd (FTSA) versus Ki of ref 35): 2 times; Kd (CA VI [9]): 56 µM; Ki (CA VI [13]): 9.9 µM
